Source: US20240327334A1, “Covalent Inhibitors As Antiviral Agents” (Enanta Pharmaceuticals, Inc., priority 2022, published 2024)
pEC50, pIC50: −log10 of the molar value.

What was measured:
[1] = system: SARS-CoV-2 USA-WA1/2020; assay: microbe, parasite or virus in culture; assay type: cell-based; conditions: Severe acute respiratory syndrome coronavirus 2, 144 h; Vero 76 cells, SARS-CoV-2 USA-WA1/2020, neutral red, day 6; read-out: SARS-CoV-2 BSL3 EC50
[2] = system: SARS-CoV-2 replicon; assay: microbe, parasite or virus in culture; assay type: cell-based; conditions: Severe acute respiratory syndrome coronavirus 2, Huh-7
[3] = molecular target: SARS-CoV-2 Papain-like (PLpro) protease (Severe acute respiratory syndrome coronavirus 2, UniProt P0DTD1); assay: SARS-CoV-2 Papain-like (PLpro) protease biochemical enzyme inhibition assay (ubiquitin-fluorophore substrate, Ub-R110); conditions: Ub-R110 substrate; run in duplicate; read-out: PLpro IC50

SMILES | pEC50 [1] | pEC50 [2] | pIC50 [3]
O=C(C#CCNC(=O)C(=O)NCc1ccccc1C(=O)NC1(c2ccc3ccccc3c2)CC1)NC1CC1 [Example 536] | > 6.00 | > 6.00 | > 7.00
O=C(C#CCNC(=O)C(=O)NCc1ccccc1C(=O)NC1(c2cccc3ccccc23)CC1)N[C@]12C[C@](C(F)(F)F)(C1)C2 [Example 525] | 5.00 to 6.00 | > 6.00 | > 7.00
C[C@@H](C#Cc1nccs1)NC(=O)C(=O)NCc1ccccc1C(=O)NC1(c2ccc3nn(C)cc3c2F)CC1 [Example 333] |  | > 6.00 | > 7.00
Cc1nn(C)c(C)c1-c1cc(F)c(F)c(C2(NC(=O)c3ccccc3CNC(=O)C(=O)NCC#Cc3nccs3)CC2)c1 [Example 297] |  | > 6.00 | > 7.00
Cc1cccnc1C#C[C@H](C)NC(=O)C(=O)NCc1ccccc1C(=O)NC1(c2ccc3nn(C)cc3c2)CC1 [Example 274] |  | > 6.00 | > 7.00
N#CCNC(=O)C(=O)NCc1ccccc1C(=O)NC1(c2cc(-c3cnn(C4CC4)c3)cc3ncccc23)CC1 [Example 415] |  | 5.00 to 6.00 | > 7.00
N#CN1CC(CNC(=O)C(=O)NCc2ccccc2C(=O)NC2(c3cc(F)cc(-c4cnn(C5CC5)c4)c3)CC2)C1 [Example 431] |  | 5.00 to 6.00 | 6.00 to 7.00
COC(=O)/C=C/CNC(=O)C(=O)NCc1ccccc1C(=O)N[C@H](C)c1cc(-c2cnn(C3CC3)c2)cc(C(F)(F)F)c1 [Example 459] |  | 5.00 to 6.00 | > 7.00
COc1cccnc1C#CCNC(=O)C(=O)NCc1ccccc1C(=O)NC1(c2cc(F)cc(-c3cnn(C4CC4)c3)c2)CC1 [Example 261] |  | > 6.00 | > 7.00
C[C@@H](C#Cc1ncccc1Cl)NC(=O)C(=O)NCc1ccccc1C(=O)NC1(c2cc(F)cc(-c3cnn(CC(C)(C)O)c3)c2)CC1 [Example 280] |  | > 6.00 | > 7.00
O=C(NCC#Cc1ccc(F)cn1)C(=O)NCc1ccccc1C(=O)NC1(c2cc(-c3cnn(C4CC4)c3)cc(C3CC3)c2)CC1 [Example 135] |  | > 6.00 | > 7.00
N#CCNC(=O)C(=O)NCc1ccccc1C(=O)NC1(c2cc(Cl)cc(-c3cnn(C4CC4)c3)c2)CC1 [Example 454] |  | 5.00 to 6.00 | > 7.00
COC(=O)/C(C)=C/CNC(=O)C(=O)NCc1ccccc1C(=O)N[C@H](C)c1cccc2ccccc12 [Example 24] |  | > 6.00 | > 7.00
C[C@@H](C#Cc1nccs1)NC(=O)C(=O)NCc1ccccc1C(=O)NC1(c2cc(Cl)cc(-c3nccs3)c2)CC1 [Example 494] |  | > 6.00 | > 7.00
N#CCNC(=O)C(=O)NCc1ccccc1C(=O)NC1(c2cc(-c3cnn(C(F)F)c3)cc3ccccc23)CC1 [Example 285] |  | > 6.00 | > 7.00
Cc1nn(C)cc1-c1cc(F)cc(C2(NC(=O)c3ccccc3CNC(=O)C(=O)N[C@@H](C)C#Cc3ncccc3Cl)CC2)c1 [Example 275] |  | > 6.00 | > 7.00
O=C(NCC#Cc1nccs1)C(=O)NCc1ccccc1C(=O)NC1(c2cc(-c3ccn(C(F)F)n3)cc(F)c2F)CC1 [Example 296] |  | > 6.00 | > 7.00
C[C@@H](C#Cc1ccc(C#N)cc1C(F)(F)F)NC(=O)C(=O)NCc1ccccc1C(=O)NC1(c2ccc3nn(C)cc3c2)CC1 [Example 109] |  | > 6.00 | > 7.00
CN(C)CCn1cc(-c2cc(F)cc(C3(NC(=O)c4ccccc4CNC(=O)C(=O)NCC#Cc4nccs4)CC3)c2)cn1 [Example 251] |  | > 6.00 | > 7.00
Cc1cc(C)nc(C#CCNC(=O)C(=O)NCc2ccccc2C(=O)NC2(c3ccc4ccccc4c3)CC2)n1 [Example 178] |  | > 6.00 | > 7.00
CN(C)S(=O)(=O)n1cc(-c2cc(C3(NC(=O)c4ccccc4CNC(=O)C(=O)NCC#N)CC3)c3ccccc3c2)cn1 [Example 355] |  | > 6.00 | > 7.00
Cn1cc(-c2cc(F)cc(C3(NC(=O)c4ccccc4CNC(=O)C(=O)NCC#N)CC3)c2)cn1 [Example 235] |  | < 5.00 | > 7.00
COc1cc(C2(NC(=O)c3ccccc3CNC(=O)C(=O)NC/C=C/c3ncccn3)CC2)cc2cn(C3CC3)nc12 [Example 577] |  | > 6.00 | > 7.00
O=C(NCC#Cc1cncnc1)C(=O)NCc1ccccc1C(=O)NC1(c2ccc3ccccc3c2)CC1 [Example 166] |  | > 6.00 | > 7.00
N#Cc1ccccc1C#CCNC(=O)C(=O)NCc1ccccc1C(=O)NC1(c2ccc3ccccc3c2)CC1 [Example 94] |  | > 6.00 | > 7.00
C#CCNC(=O)C(=O)NCc1ccccc1C(=O)NC1(c2cc(-c3cnn(C4CC4)c3)ccc2Cl)CC1 [Example 384] |  | > 6.00 | > 7.00
N#CCNC(=O)C(=O)NCc1ccccc1C(=O)NC1(c2cc(C#N)cc(-c3cccs3)c2)CC1 [Example 127] |  | 5.00 to 6.00 | > 7.00
Cc1n[nH]cc1-c1cc(C2(NC(=O)c3ccccc3CNC(=O)C(=O)NCC#N)CC2)c2ccccc2c1 [Example 284] |  | > 6.00 | > 7.00

SMILES | pEC50 [1] | pEC50 [2] | pIC50 [3]
N#CCNC(=O)C(=O)NCc1ccccc1C(=O)NC1(c2cc(-c3ccn(C4CC4)n3)cc(F)c2F)CC1 [Example 306] |  | > 6.00 | > 7.00
N#CCNC(=O)C(=O)NCc1ccccc1C(=O)NC1(c2cc(Cl)cc(-c3cnc(C4CC4)nc3)c2)CC1 [Example 74] |  | 5.00 to 6.00 | > 7.00
CC(C#N)NC(=O)C(=O)NCc1ccccc1C(=O)NC1(c2cccc3ccccc23)CC1 (stereo not shown) [Example 33] |  | < 5.00 | 6.00 to 7.00
Cc1nn(C)c(C)c1-c1cc(C2(NC(=O)c3ccccc3CNC(=O)C(=O)NCC#Cc3nccs3)CC2)cc2ccccc12 [Example 299] |  | > 6.00 | > 7.00
N#CCNC(=O)C(=O)NCc1ccccc1C(=O)NC1(c2cc(-c3cnn(C4CC4)c3)cc3ccccc23)CC1 [Example 357] |  | > 6.00 | > 7.00
O=C(NCC#Cc1ccccn1)C(=O)NCc1ccccc1C(=O)NC1(c2ccc3ccccc3c2)CC1 [Example 174] |  | > 6.00 | > 7.00
C#CCNC(=O)C(=O)NCc1ccccc1C(=O)NC1(c2cc(Cl)cc(-c3cnc(C(F)(F)F)nc3)c2)CC1 [Example 71] |  | > 6.00 | > 7.00
N#CCNC(=O)C(=O)NCc1ccccc1C(=O)NC1(c2cc(-c3cccs3)cc(Cl)c2F)CC1 [Example 304] |  | 5.00 to 6.00 | > 7.00
C[C@@H](C#Cc1ncccc1Cl)NC(=O)C(=O)NCc1ccccc1C(=O)NC1(c2ccc3nn(C)cc3c2)CC1 [Example 272] |  | > 6.00 | > 7.00
N#CCNC(=O)C(=O)NCc1ccccc1C(=O)NC1(c2cc(-c3cnn(C4CC4)c3)cc(C(F)(F)F)c2)CC1 [Example 470] |  | 5.00 to 6.00 | > 7.00
CN1CCC(n2cc(-c3cc(F)cc(C4(NC(=O)c5ccccc5CNC(=O)C(=O)NCC#Cc5nccs5)CC4)c3)cn2)CC1 [Example 255] |  | > 6.00 | > 7.00
O=C(NCC#Cc1nccs1)C(=O)NCc1ccccc1C(=O)NC1(c2cc(Cl)cc(-c3cnc(C4CC4)nc3)c2)CC1 [Example 83] |  | > 6.00 | > 7.00
C[C@@H](C#Cc1ccc(C#N)cc1OC(F)(F)F)NC(=O)C(=O)NCc1ccccc1C(=O)NC1(c2ccc3nn(C)cc3c2)CC1 [Example 206] |  | > 6.00 | > 7.00
N#Cc1ccc(C#CCNC(=O)C(=O)NCc2ccccc2C(=O)NC2(c3ccc4ccccc4c3)CC2)c(F)c1 [Example 86] |  | > 6.00 | > 7.00
Cc1nn(C)c(C)c1-c1cc(C2(NC(=O)c3ccccc3CNC(=O)C(=O)N[C@@H](C)C#Cc3nccs3)CC2)cc2ccccc12 [Example 298] |  | > 6.00 | > 7.00
CNN(C)C(=O)/C=C/CNC(=O)C(=O)NCc1ccccc1C(=O)NC1(c2cccc3ccccc23)CC1 [Example 559] |  | 5.00 to 6.00 | 6.00 to 7.00
C#CCNC(=O)C(=O)NCc1ccccc1C(=O)NC1(c2ccc(F)c(-c3cnn(C4CC4)c3)c2)CC1 [Example 225] |  | > 6.00 | > 7.00
O=C(NCC#Cc1cnc(C(F)(F)F)nc1)C(=O)NCc1ccccc1C(=O)NC1(c2ccc3ccccc3c2)CC1 [Example 181] |  | > 6.00 | > 7.00
O=C(NCC#Cc1cscn1)C(=O)NCc1ccccc1C(=O)NC1(c2ccc3ccccc3c2)CC1 [Example 165] |  | 5.00 to 6.00 | > 7.00
O=C(NCC#Cc1ccc(Cl)nn1)C(=O)NCc1ccccc1C(=O)NC1(c2ccc3ccccc3c2)CC1 [Example 199] |  | > 6.00 | > 7.00
N#CCNC(=O)C(=O)NCc1ccccc1C(=O)NC1(c2cc(F)cc(-c3cnn(C4CC4)c3)c2)CC1 [Example 222] |  | < 5.00 | > 7.00
CN(C(=O)c1cc(Cl)cc(C2(NC(=O)c3ccccc3CNC(=O)C(=O)NCC#Cc3nccs3)CC2)c1)c1ccc(F)cc1 [Example 79] |  | > 6.00 | > 7.00
Cn1cc2cc(C3(NC(=O)c4ccccc4CNC(=O)C(=O)NCC#Cc4ccccc4C#N)CC3)ccc2n1 [Example 104] |  | > 6.00 | > 7.00
N#CCNC(=O)C(=O)NCc1ccccc1C(=O)NC1(c2ccc3c4c(cccc24)CC3)CC1 [Example 439] |  | > 6.00 | > 7.00
CC(C)(O)CCc1cc(C2(NC(=O)c3ccccc3CNC(=O)C(=O)NCC#N)CC2)c2ccccc2c1 [Example 424] |  | 5.00 to 6.00 | > 7.00
N#Cc1nc(C#CCNC(=O)C(=O)NCc2ccccc2C(=O)NC2(c3ccc4ccccc4c3)CC2)ccc1Cl [Example 194] |  | > 6.00 | > 7.00
C[C@@H](NC(=O)c1cc(F)c(F)cc1CNC(=O)C(=O)NCC#N)c1cccc2ccccc12 [Example 363] |  | > 6.00 | 6.00 to 7.00
